ChEMBL document CHEMBL1221360, “Synthesis and structure-activity relationships of sinenxan A derivatives as multidrug resistance reversal agents” (Bioorg Med Chem Lett, 2010)
Activity calls are given as the source filed them. The calls are words filed in the database; no cut-off is given here.

What was measured:
KB = test: Cytotoxicity against human KB cells; type: functional, cell-based
KB/V [1] = test: Reversal of human P-glycoprotein-mediated multidrug resistance in human KB/V cells as reduction of vincristine IC50 at 10 uM; type: cell-based
KB/V [2] = test: Ratio of compound reversal of P-glycoprotein-mediated multidrug resistance to verapamil reversal of P-glycoprotein-mediated multidrug resistance in human KB/V cells; type: cell-based
KB/V [3] = test: Partial reversal of human P-glycoprotein-mediated multidrug resistance in human KB/V cells as reduction of vincristine IC50 at 10 uM; type: cell-based

| Compound | Activity (KB) | Activity (KB/V [1]) | Ratio (KB/V [2]) | Activity (KB/V [3]) |
| --- | --- | --- | --- | --- |
| C=C1[C@@H](OC(=O)CCCc2ccccc2)CC[C@@]2(C)C[C@H](OC(C)=O)C3=C(C)CC[C@@H]([C@@H](OC(C)=O)[C@H]12)C3(C)C | inactive | inactive |  |  |
| C=C1[C@@H](OC(=O)CCC2CCCCC2)CC[C@@]2(C)C[C@H](OC(C)=O)C3=C(C)CC[C@@H]([C@@H](OC(C)=O)[C@H]12)C3(C)C | inactive | inactive |  |  |
| C=C1[C@@H](OC(=O)[C@@H]2CCCN2)CC[C@@]2(C)C[C@H](OC(C)=O)C3=C(C)C(=O)CC([C@@H](OC(C)=O)[C@H]12)C3(C)C (single isomer, unassigned) | inactive | Active | 21.2 |  |
| C=C1[C@@H](OC(=O)/C=C\c2ccco2)CC[C@@]2(C)C[C@H](OC(C)=O)C3=C(C)CC[C@@H]([C@@H](OC(C)=O)[C@H]12)C3(C)C | inactive | inactive |  |  |
| C=C1[C@@H](OC(=O)c2cccnc2)CC[C@@]2(C)C[C@H](OC(C)=O)C3=C(C)CC[C@@H]([C@@H](OC(C)=O)[C@H]12)C3(C)C | inactive |  |  | Active |
| C=C1[C@@H](OC(=O)CCC2CCCCC2)CC[C@@]2(C)C[C@H](OC(C)=O)C3=C(C)C(=O)C[C@@H]([C@@H](OC(C)=O)[C@H]12)C3(C)C | inactive |  |  | Active |
| C=C1[C@@H](OC(=O)CCCCc2ccccc2)CC[C@@]2(C)C[C@H](OC(C)=O)C3=C(C)C(=O)C[C@@H]([C@@H](OC(C)=O)[C@H]12)C3(C)C | inactive | inactive |  |  |
| C=C1[C@@H](OC(=O)CCc2cccs2)CC[C@@]2(C)C[C@H](OC(C)=O)C3=C(C)C(=O)C[C@@H]([C@@H](OC(C)=O)[C@H]12)C3(C)C | inactive | inactive |  |  |
| C=C1[C@@H](OC(=O)/C=C/c2ccccc2)CC[C@@]2(C)C[C@H](OC(C)=O)C3=C(C)CC[C@@H]([C@@H](OC(C)=O)[C@H]12)C3(C)C | inactive | inactive |  |  |
| C=C1[C@@H](OC(=O)CCCc2cccs2)CC[C@@]2(C)C[C@H](OC(C)=O)C3=C(C)C(=O)C[C@@H]([C@@H](OC(C)=O)[C@H]12)C3(C)C | inactive |  |  | Active |
| C=C1[C@@H](OC(=O)Cc2ccccc2)CC[C@@]2(C)C[C@H](OC(C)=O)C3=C(C)CC[C@@H]([C@@H](OC(C)=O)[C@H]12)C3(C)C | inactive | inactive |  |  |
| C=C1[C@@H](OC(=O)/C=C\c2ccco2)CC[C@@]2(C)C[C@H](OC(C)=O)C3=C(C)C(=O)C[C@@H]([C@@H](OC(C)=O)[C@H]12)C3(C)C | inactive | Active | 1.67 |  |
| C=C1[C@@H](OC(=O)c2ccco2)CC[C@@]2(C)C[C@H](OC(C)=O)C3=C(C)CC[C@@H]([C@@H](OC(C)=O)[C@H]12)C3(C)C | inactive | inactive |  |  |
| C=C1[C@@H](OC(=O)Cc2cccs2)CC[C@@]2(C)C[C@H](OC(C)=O)C3=C(C)CC[C@@H]([C@@H](OC(C)=O)[C@H]12)C3(C)C | inactive | inactive |  |  |
| C=C1[C@@H](OC(=O)CCC(=O)O)CC[C@@]2(C)C[C@H](OC(C)=O)C3=C(C)CC[C@@H]([C@@H](OC(C)=O)[C@H]12)C3(C)C | inactive | inactive |  |  |
| C=C1[C@@H](OC(=O)CC2CCCCC2)CC[C@@]2(C)C[C@H](OC(C)=O)C3=C(C)C(=O)C[C@@H]([C@@H](OC(C)=O)[C@H]12)C3(C)C | inactive | Active | 6.6 |  |
| C=C1[C@@H](OC(=O)COc2ccc3ccccc3c2)CC[C@@]2(C)C[C@H](OC(C)=O)C3=C(C)C(=O)C[C@@H]([C@@H](OC(C)=O)[C@H]12)C3(C)C | inactive | inactive |  |  |
| C=C1[C@@H](OC(=O)COc2ccc3ccccc3c2)CC[C@@]2(C)C[C@H](OC(C)=O)C3=C(C)CC[C@@H]([C@@H](OC(C)=O)[C@H]12)C3(C)C | inactive |  |  | Active |
| C=C1[C@@H](OC(=O)c2cccnc2)CC[C@@]2(C)C[C@H](OC(C)=O)C3=C(C)C(=O)C[C@@H]([C@@H](OC(C)=O)[C@H]12)C3(C)C | inactive |  |  | Active |
| C=C1[C@@H](OC(=O)Cc2cccs2)CC[C@@]2(C)C[C@H](OC(C)=O)C3=C(C)C(=O)C[C@@H]([C@@H](OC(C)=O)[C@H]12)C3(C)C | inactive | inactive |  |  |
| C=C1[C@@H](OC(=O)Cc2cc(OC)ccc2OC)CC[C@@]2(C)C[C@H](OC(C)=O)C3=C(C)CC[C@@H]([C@@H](OC(C)=O)[C@H]12)C3(C)C | inactive | inactive |  |  |
| COc1ccc(CCN(C)CCCC(C#N)(c2ccc(OC)c(OC)c2)C(C)C)cc1OC (stereo not drawn) | inactive | inactive |  |  |
| C=C1[C@@H](OC(=O)c2ccco2)CC[C@@]2(C)C[C@H](OC(C)=O)C3=C(C)C(=O)C[C@@H]([C@@H](OC(C)=O)[C@H]12)C3(C)C | inactive |  |  | Active |
| C=C1[C@@H](OC(=O)Cc2cccc3ccccc23)CC[C@@]2(C)C[C@H](OC(C)=O)C3=C(C)C(=O)C[C@@H]([C@@H](OC(C)=O)[C@H]12)C3(C)C | inactive | inactive |  |  |
| C=C1[C@@H](OC(=O)CCCCc2ccccc2)CC[C@@]2(C)C[C@H](OC(C)=O)C3=C(C)CC[C@@H]([C@@H](OC(C)=O)[C@H]12)C3(C)C | inactive |  |  | Active |
| C=C1[C@@H](OC(=O)CCc2ccccc2)CC[C@@]2(C)C[C@H](OC(C)=O)C3=C(C)CC[C@@H]([C@@H](OC(C)=O)[C@H]12)C3(C)C | inactive | inactive |  |  |
| C=C1[C@@H](OC(=O)CCc2cccnc2)CC[C@@]2(C)C[C@H](OC(C)=O)C3=C(C)C(=O)C[C@@H]([C@@H](OC(C)=O)[C@H]12)C3(C)C | inactive | Active | 1.42 |  |
